Broadly, the melting point is the temperature, or range, at which the solid turns liquid.

For the compound `Cc1sc2ncnc(SCC(=O)O)c2c1C`, the melting point was in the range of 215 to 217 °C.

In the case of `Clc1ccc(Cl)c(-c2cc[nH]n2)c1`, the melting point was in the range of 143 to 145 °C.

For `Nc1cc(-c2cccc([N+](=O)[O-])c2)n[nH]1`, the melting point is 137 to 139 °C.

Take `NCc1ccc(NC(=O)c2ccco2)cc1`: the melting point lay within 102 to 104 °C.

Compound `NS(=O)(=O)c1ccc(CCNC(=O)CCl)cc1` showed a melting point of 145 to 148 °C.

`Nc1nnc(-c2ccc3c(c2)OCO3)o1` displayed a melting point of 271 to 273 °C.

The compound `NC(=O)NC(=O)CCl` had a melting point of 181 to 183 °C.

On to `COc1cccc(-n2cncn2)c1`, for which the melting point fell in the range of 95 to 97 °C.

Compound `O=C(O)c1sccc1S(=O)(=O)C(F)F` returned a melting point of 121 to 123 °C.

In turn, `COc1ccc(CNc2c([N+](=O)[O-])ncn2C)cc1OC` registered a melting point of 196 to 198 °C.

The compound `CC(C)Nc1cccc(O)c1` showed a melting point of 95 to 97 °C.

Consider `CNC1=NS(=O)(=O)c2ccccc21`, for which the melting point fell in the range of 269 to 271 °C.

`Cc1ccc(-n2cccc2)cc1` registered a melting point of 82 to 84 °C.

As for `O=C(CCl)Nc1ccccc1I`, the melting point lay in the range of 38 to 40 °C.

In turn, `O=C1CCc2c(F)ccc(F)c21` displayed a melting point of 117 to 119 °C.

`Nc1ccnc(Sc2ccccn2)c1` returned a melting point of 99 to 101 °C.

In the case of `Cc1nc(=N)c(C)c(C)[nH]1`, the melting point lay within 196 to 198 °C.

`Cc1ccc(S(=O)(=O)C2(C(=O)O)CCCC2)cc1` had a melting point of 131 to 133 °C.

Regarding `COc1cc(NC(=O)C2CCCC2)c(C(=O)O)cc1OC`, the melting point was 193 to 195 °C.

Consider `CNC(=O)c1cc(OC)ccc1N`, for which the melting point lay within 119 to 121 °C.

For `Nc1cc(-c2c(F)cc(F)cc2F)no1`, the melting point lay within 131 to 133 °C.

With `CCc1ccc2cc(C(=O)O)[nH]c2c1`, the melting point lay within 178 to 180 °C.

For `N#CCC1(Sc2ccccc2N)CCCC1`, the melting point fell in the range of 89 to 91 °C.

Take `CC(C)(C)c1ccc(S(N)(=O)=O)cc1`: the melting point was in the range of 136 to 138 °C.

`COC(=O)c1ccc(C=CC(=O)O)cc1` came in with a melting point of 236 to 238 °C.

As to `NNc1ccnc2ccccc12`, the melting point lay within 155 to 157 °C.

`O=C(O)C1CCN(C(=O)COc2ccccc2)CC1` yielded a melting point of 73 to 75 °C.

Consider `COC(=O)c1ccc(O)nc1C`, for which the melting point lay within 222 to 224 °C.

`O=C1C(=O)N(CN2CCN(CCO)CC2)c2ccccc21` yielded a melting point of 157 to 159 °C.

Turning to `NC(=S)Nc1cccc(Oc2ccccc2)c1`, the melting point is 119 to 121 °C.

Turning to `O=c1[nH]nc2n1CCNC2`, the melting point was in the range of 179 to 181 °C.

Turning to `CCOC(=O)COc1ccc(C#N)cc1`, the melting point lay in the range of 54 to 56 °C.

In turn, `CCc1cccc2c(C(=O)CC#N)c[nH]c12` came in with a melting point of 178 to 180 °C.

On to `Cc1noc2ncc(S(=O)(=O)Cl)cc12`, for which the melting point was 110 to 112 °C.

Turning to `O=C(O)c1ccc(Br)nn1`, the melting point was in the range of 140 to 142 °C.

With `NC(=S)NCCc1ccccn1`, the melting point was 94 to 98 °C.

`Cc1cc(NN)nc2ccccc12` returned a melting point of 146 to 148 °C.

Take `O=C1CC2(CCCCC2)CC(=O)N1`: the melting point was 169 to 171 °C.

`COc1cc(C=O)ccc1OCC(N)=O` gave a melting point of 155 to 157 °C.

In turn, `O=C(CN1CCNCC1)Nc1cccc(F)c1` gave a melting point of 68 to 70 °C.

In turn, `Cn1cnnc1Sc1ccc(Br)cc1N` came in with a melting point of 144 to 146 °C.

`CC(C)(C)NS(=O)(=O)c1ccc(Cl)c([N+](=O)[O-])c1`: the melting point lay in the range of 88 to 90 °C.

`CN1C(=O)NC(=O)C12CCCCC2` returned a melting point of 172 to 174 °C.

Take `O=[N+]([O-])c1ccc(OCCO)cc1C(F)(F)F`: the melting point was in the range of 62 to 64 °C.

Take `CCOc1cc(C#N)cc(Cl)c1O`: the melting point lay within 126 to 128 °C.

Take `O=C(O)C=CC1=CCCC1`: the melting point is 147 to 149 °C.

Regarding `O=C(O)c1ccccc1CO`, the melting point was 119 to 121 °C.

The compound `COC(=O)C(Cc1c[nH]c2ccccc12)NC(=O)c1ccc2ccccc2c1` (stereo not drawn) registered a melting point of 182 to 184 °C.

On to `CC(CN1CCOCC1)C(=O)NN` (stereo not drawn), for which the melting point was 86 to 88 °C.

In turn, `CC(C)n1cc2cc(N)ccc2n1` came in with a melting point of 105 to 107 °C.

The compound `CN(C)c1ccnc(Cl)n1` registered a melting point of 79 to 81 °C.

`NCc1nc(-c2ccsc2)no1` had a melting point of 134 to 136 °C.

Compound `[N-]=[N+]=NS(=O)(=O)c1cccc2c1N=S=N2` showed a melting point of 118 to 120 °C.

The compound `Cc1ccc(N2CCc3c(N)cccc3C2)nn1` came in with a melting point of 144 to 146 °C.

`O=C(Cc1ccccc1)c1nc2ccccc2s1` registered a melting point of 110 to 112 °C.

For the compound `O=C(O)C(NC1CC1)c1cc(Br)cs1` (stereo not drawn), the melting point fell in the range of 155 to 157 °C.

Consider `O=C(O)CCC(Cc1ccc(Cl)cc1)C(=O)O` (stereo not drawn), for which the melting point lay in the range of 137 to 139 °C.

In turn, `c1ccc(-n2cccn2)nc1` displayed a melting point of 37 to 39 °C.

For `COc1ccccc1-c1nnc(N)o1`, the melting point lay in the range of 175 to 177 °C.

On to `CN1CCCc2ccc(S(=O)(=O)Cl)cc21`, for which the melting point lay within 64 to 66 °C.

Compound `CC(C)(C)OC(=O)N1CC2(CNC(=O)C2)C1` registered a melting point of 163 to 165 °C.

`CN(C)C(=O)c1cc(N)ccc1Cl` gave a melting point of 158 to 160 °C.

`NCc1ccccc1CN1CCN(c2ccccc2)CC1` registered a melting point of 86 to 88 °C.

The compound `Cc1c[nH]nc1[N+](=O)[O-]` returned a melting point of 183 to 185 °C.

Regarding `CC1Cc2ccccc2N1S(=O)(=O)c1ccc(F)c(C(=O)O)c1` (stereo not drawn), the melting point lay in the range of 200 to 202 °C.

In the case of `CC(Oc1cccnc1N)c1ccccc1` (stereo not drawn), the melting point fell in the range of 83 to 85 °C.

For the compound `O=C(CO)NCc1ccc(F)cc1`, the melting point was in the range of 102 to 104 °C.

Consider `NS(=O)(=O)C1CCS(=O)(=O)C1` (stereo not drawn), for which the melting point was 144 to 146 °C.

`Cc1cc(N)n(-c2ccc(OC(F)(F)F)cc2)n1` came in with a melting point of 118 to 120 °C.

For the compound `O=C(O)CNC(=O)NCc1cccc([N+](=O)[O-])c1`, the melting point was in the range of 153 to 155 °C.

`CNC(=O)c1ccccc1O`: the melting point fell in the range of 83 to 85 °C.

The compound `Nn1c(S)nnc1-c1ccccc1` had a melting point of 193 to 195 °C.

As for `O=C(O)Cc1ccc(S(=O)(=O)CCO)cc1`, the melting point was 99 to 101 °C.

In the case of `OC1CC(c2ccccc2F)C1` (stereo not drawn), the melting point fell in the range of 46 to 48 °C.

`O=[N+]([O-])c1ccc(Cl)c2c1CCCN2` showed a melting point of 93 to 95 °C.

Consider `O=C(O)CCCOc1ccc(F)cc1F`, for which the melting point lay in the range of 74 to 76 °C.

On to `CC1CCC(=CC(=O)O)CC1` (stereo not drawn), for which the melting point is 61 to 63 °C.

On to `CC(=O)N1CCC(CCC(=O)O)CC1`, for which the melting point was in the range of 119 to 121 °C.

As to `Nc1cccc(NC(=O)NCc2ccncc2)c1`, the melting point is 159 to 161 °C.

`CN(C)c1ccc(C2NCC(CCl)O2)cc1` (stereo not drawn) displayed a melting point of 104 to 106 °C.

In turn, `Cc1cc(SC(C)(C)C)ccc1N` had a melting point of 69 to 71 °C.

`COc1ccc(NC2=C(Cl)C(=O)N(c3ccc(C)cc3)C2=O)cc1` came in with a melting point of 194 to 196 °C.

Regarding `CC(C)C(=O)Nc1ccc(O)cc1`, the melting point lay within 158 to 160 °C.

`N#CC1(C(=O)O)CCOCC1`: the melting point fell in the range of 162 to 164 °C.

As for `NCC(O)c1ccc(Cl)s1` (stereo not drawn), the melting point is 74 to 76 °C.

`O=C(O)CCOc1cccc(Cl)c1` yielded a melting point of 85 to 87 °C.

As for `NC(=O)c1ccc(N2CCNCC2)nc1`, the melting point lay in the range of 195 to 197 °C.

`O=C(NCCCl)C1CCCC1`: the melting point was in the range of 72 to 74 °C.

As for `Cc1nnc(-c2ccc(C(=O)O)cc2)o1`, the melting point lay within 284 to 286 °C.

The compound `COc1ccc(-c2cc(C(=O)NN)c3ccccc3n2)cc1OC` gave a melting point of 181 to 183 °C.

`Nc1ccc(C(=O)OC2CCCC2)cc1` had a melting point of 55 to 57 °C.

In turn, `CCC(=O)c1ccc(OC)c(OC)c1` had a melting point of 61 to 63 °C.

With `Nc1ccccc1N1CCc2ccccc2C1`, the melting point was in the range of 114 to 116 °C.

For the compound `CC(C)(C)NS(=O)(=O)c1ccc(N)nc1`, the melting point fell in the range of 146 to 148 °C.

`CNc1cnccn1` yielded a melting point of 44 to 46 °C.

As for `CC(=O)c1ccc(S(=O)(=O)N(C)CCCC(=O)O)cc1`, the melting point was in the range of 80 to 82 °C.

Consider `C=CCn1c(C)nnc1S`, for which the melting point was in the range of 264 to 266 °C.

As for `CC=C(C)C=CC(=O)O`, the melting point was 89 to 91 °C.

Regarding `Cc1cc(N2CC(C(=O)O)CC2=O)ccc1Br` (stereo not drawn), the melting point lay in the range of 167 to 169 °C.

Compound `O=C(CCCl)Nc1ccccc1[N+](=O)[O-]` showed a melting point of 86 to 88 °C.

Take `Cc1nc(NC2CC2)sc1C(=O)O`: the melting point lay within 208 to 210 °C.

For the compound `O=c1[nH]nnc2c1cnn2-c1ccccc1`, the melting point lay in the range of 144 to 146 °C.

`CN(C(N)=O)c1ccccc1` showed a melting point of 75 to 77 °C.

Consider `NN1C(=O)NC(c2ccccc2)(c2ccccc2)C1=O`, for which the melting point lay in the range of 188 to 192 °C.

On to `Cc1cccc(C(=O)N2CCSCC2)c1N`, for which the melting point is 113 to 115 °C.

Regarding `O=C(O)C(c1ccccc1F)N1CCOCC1` (stereo not drawn), the melting point lay in the range of 189 to 191 °C.

Take `NNc1ccc(Cl)nc1`: the melting point lay within 131 to 133 °C.

Compound `C/C(=N\Nc1ccc(Cl)c(C(=O)O)c1)c1ccc(Br)cc1` showed a melting point of 180 to 182 °C.

`O=C(CCl)c1ccc(O)cc1O` gave a melting point of 108 to 110 °C.

For `NC(=O)Nc1cccc(Br)c1`, the melting point was in the range of 163 to 167 °C.

`CNCCCc1n[nH]c(N)c1C#N` had a melting point of 179 to 181 °C.

Consider `O=C(O)Cc1c[nH]c2cc(Cl)ccc12`, for which the melting point is 185 to 187 °C.

The compound `O=C(O)CCc1ccc(S(=O)(=O)N2CCOCC2)cc1` had a melting point of 160 to 162 °C.

In turn, `Cc1cc(-c2ccccc2)nc2cc(O)nn12` gave a melting point of 231 to 233 °C.

`NNC(=O)CC1CCS(=O)(=O)C1` (stereo not drawn) had a melting point of 104 to 106 °C.

Compound `O=Cc1cn(-c2ccccc2)nc1-c1cc2ccccc2o1` showed a melting point of 176 to 178 °C.

Compound `CCOc1cccc2c1C(=O)NC2=O` had a melting point of 149 to 151 °C.

Turning to `Cc1c(-c2ccccc2)sc(N)c1C(=O)N1CCOCC1`, the melting point lay within 187 to 189 °C.

On to `Cc1nn(C(F)F)c(C)c1CO`, for which the melting point was in the range of 86 to 88 °C.

Compound `CN(CC(=O)O)S(=O)(=O)C=Cc1ccccc1` gave a melting point of 150 to 152 °C.

`O=C(O)CCC(=O)Nc1sc2c(c1C(=O)NCC1CCCO1)CCCC2` (stereo not drawn) gave a melting point of 151 to 153 °C.

Consider `O/N=C1\CCN2CCCCC12` (stereo not drawn), for which the melting point lay within 96 to 98 °C.

Consider `O=C(c1ccccc1O)N1CCCCC1`, for which the melting point lay in the range of 133 to 135 °C.

The values above are taken from a melting point compilation (Tetko et al.).
